# Test results: patent publication US6534637B2, “Synthesis of chlorophenol red glucuronic acid” (Beckman Coulter, Inc., priority 2001, dated 2003)
# Key:
# [1] = biological target: T1, E. coli α-D-Glucuronidase (Sigma, G7896) (Escherichia coli, UniProt P05804); assay: Sensitivity of GUD assay (reaction rates by OD, spectrophotometric); assay type: biochemical
# T1 construct: purchased Sigma G7896
# Method: E. coli […] (Sigma, G7896) was diluted in PBS buffer containing 10 mM DTT and 0.1% Triton X-100 and either substrate p-nitrophenol glucuronide (Sigma N1627) or phenolsulphonphthaleinyl (or chlorophenol red) glucuronide of the present invention. The final concentration of each substrate was1 mM. The final concentration of GUD was 60 pM, 125 pM, 250 pM, 500 pM, or 1000 pM. Readings of Optical Density (OD) were measured at 415 nm for assay with p-nitrophenol glucuronide and at 574 nm for assay with chlorophenol red glucuronide. OD measurements were conducted over 30 minutes at 37° C. in a Beckman DU70 spectrophotometer and the reaction rates were determined in mOD/min. […] Therefore, the sensitivity of the GUD assay utilizing a substrate of the present invention as compared to the sensitivity of GUD assay with a conventional substrate.
# [2] = Solubility of the GUD substrates (statement); assay type: physicochemical; settings: for liquid homogeneous assay formats
# [3] = biological target: T2, purified β-glucuronidase (Sigma G-7896) (Escherichia coli, UniProt P05804); assay: Enzyme assay: suitability of the substrate for detecting β-glucuronidase; assay type: biochemical, E. coli; settings: 50 MM sodium phosphate buffer, pH 7.0, 10 mM β-mercaptoethanol, 0.1% Triton X-100
# T2 construct: purchased Sigma G-7896
# Method: The suitability of the chlorophenol red β-D-glucuronic acid substrate (IVA) for detecting β-glucuronidase in a sample was tested following the procedure of Jefferson et al., PNAS (1986) Vol. 83, 8447-8451. The solid product (IVA) was dissolved in water to a final concentration of approximately 100 mM (red-orange product). An aliquot was added to 50 μM of purified β-glucuronidase (Sigma G-7896) in 50 MM sodium phosphate buffer, pH 7.0, 10 mM β-mercaptoethanol and 0.1% Triton X-100.
# T1 sequence (P05804 whole entry): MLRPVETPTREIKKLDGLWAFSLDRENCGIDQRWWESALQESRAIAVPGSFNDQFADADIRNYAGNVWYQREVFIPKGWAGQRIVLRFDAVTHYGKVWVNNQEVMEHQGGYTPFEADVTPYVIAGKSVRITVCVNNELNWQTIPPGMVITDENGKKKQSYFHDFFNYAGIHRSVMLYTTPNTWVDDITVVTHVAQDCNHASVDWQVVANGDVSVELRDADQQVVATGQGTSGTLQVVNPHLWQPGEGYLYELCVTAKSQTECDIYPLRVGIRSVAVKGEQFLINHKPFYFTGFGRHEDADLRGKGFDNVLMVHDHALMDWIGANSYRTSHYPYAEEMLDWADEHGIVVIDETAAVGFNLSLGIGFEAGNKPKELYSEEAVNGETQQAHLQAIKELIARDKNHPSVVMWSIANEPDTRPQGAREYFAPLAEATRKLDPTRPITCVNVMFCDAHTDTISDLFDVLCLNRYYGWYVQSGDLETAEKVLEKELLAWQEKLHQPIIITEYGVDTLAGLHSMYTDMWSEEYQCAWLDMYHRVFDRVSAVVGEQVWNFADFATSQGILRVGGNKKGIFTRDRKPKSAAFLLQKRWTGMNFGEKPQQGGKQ
# T2 sequence (P05804 whole entry): as above
smiles,measurement,setting,value
"O=C1C=C/C(=C(/c2ccc(OC3OC(C(=O)O)[C@@H](O)C(O)C3O)c(Cl)c2)c2ccccc2S(=O)(=O)[O-])C=C1Cl.[Na+] (stereo partly drawn) [IVA, Chlorophenol Red β-D-Glucuronic Acid]",Reaction rate (mOD/min) relative to the nitrophenol-glucuronide substrate,"[1]; each substrate 1 mM, GUD 60-1000 pM, 37° C., 30 minutes, OD at 574 nm vs 415 nm",5.76 fold
same,Signal intensity relative to nitro-phenol glucuronide (FIG. 1),[1]; identical amounts of GUD added to each substrate,about six-fold
same,Solubility,[2],highly soluble
same,Suitability as substrate: appearance of a violet product with absorbance maximum at 575 nm,[3],suitable for the detection of β-glucuronidase
